In patent US20180369244A1, “BTK Inhibitors to Treat Solid Tumors Through Modulation of the Tumor Microenvironment” (Acerta Pharma B.V., priority 2014, published 2018):

How the values were obtained:
EGFR = experiment: EGF-induced EGFR phosphorylation in A431 cells (phosphoflow); type: cell-based, human
Experimental: Phosphoflow cytometry was performed with p-EGFR (Y1069). MFI values were normalized so that 100% represents the p-EGFR level in stimulated cells without inhibitor, while 0% represents the unstimulated/no drug condition.

[1] = system: KPC derived mouse pancreatic cancer cells; experiment: KPC derived pancreatic cancer cells injected into pancreas, Formula (II) and/or gemcitabine; type: in vivo; conditions: Formula (II) 15 mg/kg/BID oral; gemcitabine 15 mg/kg IV every 4 days for 3 injections
Experimental: In this study, KPC derived mouse pancreatic cancer cells (KrasGl2D;Trp53R^172H;Pdx1-Cre) were injected into the pancreases.
Single cell suspensions from tumor samples. Mouse tumor tissue was collected and stored in PBS/0.1% soybean trypsin inhibitor prior to enzymatic dissociation. Samples were finely minced with a scissors and mouse tissue was transferred into DMEM containing 1.0 mg/ml collagenase IV (Gibco), 0.1% soybean trypsin inhibitor, and 50 U/ml DNase (Roche) and incubated at 37 C for 30 min. with constant stirring while human tissue was digested in 2.0 mg/ml collagenase IV, 1.0 mg/ml hyluronidase, 0.1% soybean trypsin inhibitor, and 50 U/ml DNase for 45 minutes. Suspensions were filtered through a 100 micron filter and washed with FACS buffer (PBS/0.5% BSA/2.0 mM EDTA) prior to staining. Two million total cells were stained with antibodies as indicated. Intracellular detection of FoxP3 was achieved following permeabilization with BD Perm Buffer III (BD Biosciences) and eBioscience Fix/Perm respectively. Following surface staining, samples were acquired on a BD Fortessa and analyzed using FlowJo (Treestar) software.

NK cells = experiment: Antibody-dependent NK cell IFN-γ secretion (ELISA); type: cell-based, human; conditions: 1 μM
Experimental: The HER18 cells were maintained in DEM supplemented with fetal bovine serum, penicillin-streptomycin and. Prior to assay, HER18 cells were harvested using trypsin-EDTA, washed with phosphate-buffered saline (PBS) containing 5% serum and viable cells were counted. […] NK cells from CLL patients and healthy volunteers were enriched from peripheral blood collected in sodium citrate anti-coagulant tubes and then subject to density centrifugation. Removal of non NK cells was performed using negative selection by MACS separation. Freshly isolated NK cells were washed three times, enumerated, and then used immediately for ADCC assays.
Cytokine secretion was determined as follows. Rituximab and trastuzumab-dependent NK-cell mediated degranulation and cytokine release were assessed using lymphoma and HER2+ breast cancer cell lines (DHL-4 and HER18, respectively). […] NK cells from healthy donors were enriched as described above and then added to the target cells and incubated for 4 hours at 37° C. Triplicate cultures were performed on NK cells from donors. After incubation, supernatants were harvested, centrifuged briefly, and then analyzed for interferon-γ using an enzyme-linked immunosorbent assay (ELISA).

NSCLC (KrasLA2) = experiment: KrasLA2 genetic NSCLC model; type: in vivo, mice
Text: The model is designed to have sporadic expression in single cells of G12D mutant Kras off its own promoter triggered by spontaneous intrachromosomal recombination. Johnson, et al. Nature 2001, 410, 1111-16. While the mutant Kras protein is expressed in a few cells in all tissues, tumor development is seen only in the lung at high penetrance.

CD4+ T cells = experiment: Th17 and Treg development from CD4+ T cells; type: cell-based
Experimental: Enriched CD4^+ T cells are plated on 24-well culture dishes that have been precoated 2 hr with 250 μL anti-TCRβ (0.5 μg/mL) plus anti-CD28 (5 μg/mL) at 37° C. in PBS. The cells are then supplemented with media containing BTK inhibitors along with the skewing cytokines as indicated in the following. The Th17 and Treg cultures are grown for 4 days before analysis. The cells are maintained for an additional 3 days with skewing cytokines (Th17; 20 ng/mL IL-6, 0.5 ng/mL TGF-β, 5 μg/mL IL-4, 5 μg/mL IFN-γ and Treg; 0.5 ng/mL TGF-β, 5 μg/mL IL-4, 5 μg/mL IFN-γ) and are supplemented with IL2 as a growth factor.

[2] = system: orthotopic pancreatic cancer (KPC cell line); experiment: Orthotopic pancreatic cancer model; type: in vivo, C57BL/6 mice; conditions: 15 mg/kg oral
Experimental: Cell line derived from KrasGl2D;Trp53R172H;Pdx1-Cre (KPC) mice were orthotopically implanted into the head of the pancreas after 35 passages. Based on the mice background from where the cell lines were generated, 1×10^6 cells were injected in C57BL/6 mice. Throughout the experiment, animals were provided with food and water ad libitum and subjected to a 12-h dark/light cycle. Animal studies were performed in accordance with the U.S. Public Health Service “Guidelines for the Care and Use of Laboratory Animals” (IACUC). After euthanization, pancreatic tumors were dissected out, weighed and single cell suspensions were prepared for flow cytometry analysis.

Raji cells = experiment: Rituximab ADCC chromium release assay; type: cell-based, human; conditions: 1 μM
Text: Cell culture conditions were as follows. […] The HER18 cells were maintained in DEM supplemented with fetal bovine serum, penicillin-streptomycin and. Prior to assay, HER18 cells were harvested using trypsin-EDTA, washed with phosphate-buffered saline (PBS) containing 5% serum and viable cells were counted. For culture of primary target cells, peripheral blood from CLL patients was subject to density centrifugation to obtain peripheral blood mononuclear cells (PBMC). Cell preparations were washed and then subject to positive selection of CD5+CD19^+ CLL cells using magnetic beads (MACS, Miltenyi Biotech). Cell preparations were used fresh after selection. NK cells from CLL patients and healthy volunteers were enriched from peripheral blood collected in sodium citrate anti-coagulant tubes and then subject to density centrifugation. Removal of non NK cells was performed using negative selection by MACS separation. Freshly isolated NK cells were washed three times, enumerated, and then used immediately for ADCC assays.
ADCC assays were performed as follows. Briefly, target cells (Raji or primary CLL) were labeled by incubation at 37° C. with 100 μCi ^51Cr for 4 hours prior to co-culture with NK cells. Cells were washed, enumerated, and then added in triplicate to prepared 96-well plates containing treated NK cells at an effector:target (E:T) ratio of 25:1. […] The effect of NK cell natural cytotoxicity was assessed in wells containing no rituximab. Cultures were incubated at 37° C. for 4 hours, and then centrifuged. Supernatants were harvested and ^51Cr release was measured by liquid scintillation counting. All experiments were performed in triplicate.

[3] = system: human platelet-mediated thrombosis; conditions: mouse, in vivo
Experimental: Injury to the vessel wall of arterioles ([…] diameter) was performed using a pulsed nitrogen dye laser (440 nm, Photonic Instruments) applied through a 20× water-immersion Olympus objective (LUMPlanF1, 0.5 numerical aperature (NA)) of a Zeiss Axiotech vario microscope. […] The extent of thrombus formation was assessed for 2 minutes after injury and the area (μm^2) of coverage determined (Image IQ, Andor Technology).
The BTK inhibitor-treated human platelets were fluorescently labeled and infused continuously through a catheter inserted into the femoral artery.

CD8+ T cells = experiment: CD8+ T cell viability; type: cell-based; conditions: 4 days culture
Experimental: Total T cells were plated on anti-TCR and anti-CD28 coated wells in the presence of both BTK inhibitors. Neutral culture conditions were used that will not polarize T cells to a helper lineage. The cells are grown for 4 days and are then stained with anti-CD4, anti-CD8 and LIVE/DEAD reagent to determine if the drugs have selective effects on either the CD4^+ or CD8^+ cells. Statistical significance was calculated using the Mann Whitney T-test. […]

[4] = In vitro metabolism in hepatocytes with 14C-labeled Formula (II); type: in vitro ADME, mouse, rat, dog, rabbit, monkey, and human
Text: No unique human metabolite was identified. Preliminary evaluations of metabolism in the plasma, bile, and urine of rats, dogs, and monkeys indicated metabolic processes of oxidation, glutathione binding, and hydrolysis.

CC#CC(=O)N1CCC[C@H]1c1nc(-c2ccc(C(=O)Nc3ccccn3)cc2)c2c(N)nccn12 [Formula (II), (S)-4-(8-amino-3-(1-(but-2-ynoyl)pyrrolidin-2-yl)imidazo[1,5-a]pyrazin-1-yl)-N-(pyridin-2-yl)benzamide]
inhibition of in vitro EGFR phosphorylation (EGFR; 10 μM): no inhibition | inhibition at 10 µM (EGFR; Homo sapiens, A-431, read-out: EGF-induced p-EGFR inhibition): 7% | reduction in tumor size [1]: show efficacy alone | IFN-γ or NK cell degranulation (NK cells): did not inhibit | inhibition of trastuzumab-stimulated NK cell cytokine release (NK cells; HER18 target cells): no inhibitory effect | number of tumors (NSCLC (KrasLA2); 15 mg/kg): fewer overall tumors | tumor volumes versus vehicle (NSCLC (KrasLA2); 15 mg/kg): significant decrease in tumor volumes | immunosuppressive tumor associated TAMs (NSCLC (KrasLA2); FIG. 62): significant reduction | immunosuppressive tumor associated MDSCs (NSCLC (KrasLA2); FIG. 63): significant reduction | immunosuppressive tumor associated Tregs (NSCLC (KrasLA2); FIG. 64): significant reduction | Th17 and Treg development (CD4+ T cells): no adverse effects on Th17 and Treg development | immunosuppressive tumor associated myeloid cells and Tregs ([2]; pancreatic tumor-bearing mice): reduce immunosuppressive tumor associated myeloid cells and Tregs | tumor volume ([2]; vs vehicle): statistically significant reductions in tumor volume | rituximab ADCC, NK cell activity (Raji cells; FIG. 31): not inhibited | antibody-dependent lysis of rituximab-coated Raji cells (Raji cells; healthy donor NK cells): not inhibited | effect on thrombus formation [3]: does not interfere with thrombus formation | CD8+ T cell viability (CD8+ T cells): not observed | metabolites in hepatocytes [4]: two mono-oxidized metabolites and a glutathione conjugate
